According to patent US20230053540A1, “TREATMENT OF LIVER INJURY” (Massachusetts Institute of Technology, priority 2019, published 2023):

System: hepatocytes
Assay: Seq-Well scRNA-Seq of hepatocytes after APAP overdose (signature scores, DEG vs untreated)
Assay type: in vivo, mouse
Conditions: A96 vs untreated (UT)

## CC(=O)Nc1ccc(O)cc1 [APAP, acetaminophen]
  Ces1d avg_logFC: 0.4277
  Ces1d pct.1: 0.977
  Chchd10 avg_logFC: 0.608
  Chchd10 pct.1: 0.994
  Chp1 avg_logFC: 0.2687
  Chp1 pct.1: 0.687
  Cox5a avg_logFC: 0.3398
  Cox5a pct.1: 0.813
  Cox6a1 avg_logFC: 0.2517
  Cox6a1 pct.1: 0.943
  Cox8a avg_logFC: 0.3089
  Cox8a pct.1: 0.737
  Cp avg_logFC: 0.2826
  Cp pct.1: 0.993
  Cpeb4 avg_logFC: 0.3418
  Cpeb4 pct.1: 0.527
  Cpox avg_logFC: 0.3326
  Cpox pct.1: 0.634
  Cpt1a avg_logFC: 0.3742
  Cpt1a pct.1: 0.837
  Crat avg_logFC: 0.2624
  Crat pct.1: 0.389
  Creg1 avg_logFC: 0.2586
  Creg1 pct.1: 0.985
  Crot avg_logFC: 0.3326
  Crot pct.1: 0.989
  Csde1 avg_logFC: 0.2567
  Csde1 pct.1: 0.742
  Ctage5 avg_logFC: 0.3217
  Ctage5 pct.1: 0.837
  Cxcl12 avg_logFC: 0.3372
  Cxcl12 pct.1: 0.635
  Cyp4a10 avg_logFC: 1.12
  Cyp4a10 pct.1: 0.974
  Cyp4a14 avg_logFC: 1.601
  Cyp4a14 pct.1: 0.975
  D4Wsu53e avg_logFC: 0.3032
  D4Wsu53e pct.1: 0.597
  D17Wsu92e avg_logFC: 0.3581
  D17Wsu92e pct.1: 0.771
  Ddx3x avg_logFC: 0.2899
  Ddx3x pct.1: 0.701
  Decr1 avg_logFC: 0.3241
  Decr1 pct.1: 0.808
  Decr2 avg_logFC: 0.3728
  Decr2 pct.1: 0.813
  Dennd5b avg_logFC: 0.2871
  Dennd5b pct.1: 0.548
  Dhcr24 avg_logFC: 0.3842
  Dhcr24 pct.1: 0.933
  Dhdh avg_logFC: 0.2837
  Dhdh pct.1: 0.734
  Dpys avg_logFC: 0.2626
  Dpys pct.1: 0.824
  Dusp6 avg_logFC: 0.3249
  Dusp6 pct.1: 0.476
  Ei24 avg_logFC: 0.2718
  Ei24 pct.1: 0.667
  Eif4g2 avg_logFC: 0.2838
  Eif4g2 pct.1: 0.812
  Elovl5 avg_logFC: 0.3232
  Elovl5 pct.1: 0.765
  Erbb2ip avg_logFC: 0.2553
  Erbb2ip pct.1: 0.561
  Etfdh avg_logFC: 0.2802
  Etfdh pct.1: 0.811
  F5 avg_logFC: 0.3557
  Fmo1 avg_logFC: 0.264
  Fmo1 pct.1: 0.606
  Fth1 avg_logFC: 0.3226
  Fth1 pct.1: 0.993
  G0s2 avg_logFC: 0.2947
  G0s2 pct.1: 0.525
  Gabarapl1 avg_logFC: 0.2984
  Gabarapl1 pct.1: 0.881
  Gclc avg_logFC: 0.2707
  Gclc pct.1: 0.839
  Gclm avg_logFC: 0.3282
  Gclm pct.1: 0.865
  Gfra1 avg_logFC: 0.2571
  Gfra1 pct.1: 0.687
  Gm2a avg_logFC: 0.3164
  Gm2a pct.1: 0.587
  Gm13775 avg_logFC: −1.05
  Gm13775 pct.1: 0.3
  Gpld1 avg_logFC: 0.3039
  Gpld1 pct.1: 0.748
  Grn avg_logFC: 0.3731
  Grn pct.1: 0.629
  Gsta2 avg_logFC: 0.3111
  Gsta2 pct.1: 0.522
  Gstm3 avg_logFC: −0.5668
  Gstm3 pct.1: 0.23
  Gstt3 avg_logFC: 0.3379
  Gstt3 pct.1: 0.541
  Gyk avg_logFC: 0.4334
  Gyk pct.1: 0.616
  Hadh avg_logFC: 0.2626
  Hadh pct.1: 0.774
  Hamp2 avg_logFC: 0.3052
  Hamp2 pct.1: 0.203
